System: Stress protein genes
Test: DNA chip mRNA expression in yeast, stress protein genes (Table 6)
Assay type: cell-based, Saccharomyces cerevisiae S288C
Procedure, shortened: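 S. cerevisiae S288C grown at 25° C. in YPD to log phase, then exposed 2 h to a toxicant at a growth-inhibiting, non-lethal concentration; untreated cells as control. Poly(A) mRNA reverse-transcribed with Cy3-dUTP or Cy5-dUTP, hybridized >12 h at 65° C. to whole-genome yeast DNA chip; value = fluorescence ratio treated/untreated.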

Measured: The level of expressed mRNA in the presence of chemical substance/The level of expressed mRNA in the absence of chemical substance

COc1cc(CNC(=O)CCCCC=CC(C)C)ccc1O [(12), 8-methyl-N-vanillyl-6-nonenamide]
0.8: yeast gene YBR044C | yeast gene YDR077W | yeast gene YGL073W | yeast gene YJR090C | yeast gene YKL164C | yeast gene YMR021C | yeast gene YNL064C | yeast gene YPL059W | yeast gene YPL140C | yeast gene YPL240C
0.9: yeast gene YDL025C | yeast gene YDR293C | yeast gene YDR436W | yeast gene YDR513W | yeast gene YEL030W | yeast gene YGL115W | yeast gene YJL165C | yeast gene YKL161C | yeast gene YKL163W | yeast gene YOL064C | yeast gene YPL194W | yeast gene YPL223C
1.6: yeast gene YLR109W
1.4: yeast gene YDR155C | yeast gene YMR173W | yeast gene YNL160W
1.9: yeast gene YER103W | yeast gene YLL026W
1.0: yeast gene YAL015C | yeast gene YBR067C | yeast gene YDR033W | yeast gene YFL016C | yeast gene YGL181W | yeast gene YHR104W | yeast gene YJL128C | yeast gene YJL159W | yeast gene YJR045C | yeast gene YLL024C | yeast gene YLL039C | yeast gene YMR186W
4.3: yeast gene YFL014W
2.0: yeast gene YNL241C
1.7: yeast gene YBR169C | yeast gene YCR060W | yeast gene YDR519W
1.5: yeast gene YCL035C | yeast gene YER057C | yeast gene YHL028W
1.8: yeast gene YDR258C | yeast gene YFR052W
0.4: yeast gene YOR009W
0.6: yeast gene YEL039C | yeast gene YIL011W | yeast gene YPR005C
0.7: yeast gene YBR054W | yeast gene YER125W | yeast gene YHR030C | yeast gene YKR053C | yeast gene YLR006C | yeast gene YLR259C | yeast gene YNR076W | yeast gene YOR008C
1.3: yeast gene YBR126C | yeast gene YDR098C | yeast gene YFL020C | yeast gene YIR037W | yeast gene YKL210W | yeast gene YML070W | yeast gene YOL161C | yeast gene YOR027W
1.2: yeast gene YAL005C | yeast gene YDL022W | yeast gene YOR208W | yeast gene YPR026W
16.3: yeast gene YBR072W
1.1: yeast gene YBL075C | yeast gene YBL093C | yeast gene YCR083W | yeast gene YER042W | yeast gene YGR088W | yeast gene YHL046C | yeast gene YHR057C | yeast gene YIL033C | yeast gene YIR038C | yeast gene YJL158C | yeast gene YLL060C | yeast gene YML007W | yeast gene YPL106C
0.5: yeast gene YCR021C | yeast gene YOR010C
